Laboratory results as given in patent EP1143981B1, “USE OF N-GLYCOLNEURAMINIC ACID AND ITS DERIVATIVES FOR THE MANUFACTURE OF A MEDICAMENT FOR THE TREATMENT OF HIV INFECTIONS” (Glukor, Inc., priority 1998, dated 2000).
“And” between values parts separate entries of the source, which are not always exact repeats. Identical values can stand only once. Like-named read-outs stand apart in the source and are kept apart here.

What was measured:
HIV-1 MN = type: cell-based
Experimental: Test groups included uninfected PBMCs, infected PBMCs with no N-glycolylneuraminic acid, and infected PBMCs plus N-glycolylneuraminic acid. […] Excess virus was removed by washing the cells with PBS one time then the cells were exposed to N-glycolylneuraminic acid. P24 output was measured using the DuPont P24 assay kit (optical density (OD) in Table 15). Syncytia formation was examined as well as cytopathic effects (CPE). […] Sample #7 (p24 123x10^6 pg HIV-1P24/ml) was excluded from the mean P24 output calculation due to a sampling error. […]

HIV-1ROJO = experiment: Reverse transcriptase activity assay in infected PBMCs; type: cell-based; settings: for RT activity % VC: % virus control; for RT Activity (cpm) / Reverse Transcriptase (RT) Activity (cpm): single samples; for IC50: Human immunodeficiency virus 1, PBMC
From the text: PBMCs were isolated from fresh human blood obtained commercially from the American Red Cross (Baltimore, Maryland). CEM-SS cells were obtained from the NIH AIDS reagent program. The low passage, lymphotropic clinical isolate ROJO was obtained from a pediatric patient attending the AIDS Clinic at the University of Alabama at Birmingham. Phytohemagglutinin (PHA-P) was obtained from Sigma Chemical Co. (St. Louis, MO) and recombinant IL-2 was obtained from Amgen (San Francisco, CA). As a positive control for antiviral assays, AZT was obtained from the NIH AIDS Reagent Program. HIV-1RF also was obtained from the NIH AIDS reagent program. Tritiated thymidine triphosphate was obtained from New England Nuclear (Boston, MA). Each plate in each experiment contained cell control wells (cells only), virus control wells (cells plus virus), drug toxicity control wells (cells plus drug only), drug colorimetric control wells (drug only) as well as experimental wells (drug plus cells plus virus).
Fresh human PBMCs were isolated from voluntary Red Cross donors, seronegative for HIV and HBV. Leukophoresed blood was diluted 1:1 with Dulbecco's PBS, layered over 14 mL of Ficoll-Hypaque density gradient in a 50mL centrifuge and then centrifuged for 30 minutes at 600 x g. Banded PBMCs were gently aspirated from the resulting interface and subsequently washed twice with PBS by low speed centrifugation. […] PBMCs were maintained in this medium at a concentration of 1-2 x 10^6 cells/mL with bi-weekly medium changes until used in the assay.
For the standard PBMC assay, PHA-P stimulated cells from at least two normal donors were pooled, diluted in fresh medium to a final concentration of 1 x 10^6 cells/mL, and plated in the interior wells of a 96 well round bottom microplate at 50 µL/well (5 x 10^4 cells/well). Test drug dilutions were prepared at a 2X concentration in microfuge tubes and 100 µL of each concentration was placed in appropriate wells in a standard format. A predetermined dilution of virus stock was placed in each test well (50 µL, final MOI ≅ 0.1). Wells with cells and virus alone were used for virus control. Separate plates were prepared identically without virus for drug cytotoxicity studies using an XTT assay system. The PBMC cultures were maintained for seven days following infection, at which time cell-free supernatant samples were collected and assayed for reverse transcriptase activity as described below.
Virus Preparation: Pre-tittered aliquots of HIV-1ROJO and HIV-1RF were removed from the freezer (-80°C) and thawed to room temperature in a biological safety cabinet. The virus was resuspended and diluted into tissue culture medium such that the amount of virus added to each well in a volume of 50 µL will be the amount determined to give complete cell killing at 6 days post-infection.
Reverse Transcriptase Activity Assay: A microtiter based reverse transcriptase (RT) reaction was utilized as described by Buckheit et al., (1991), AIDS Research and Human Retroviruses, 7:295-302. Tritiated thymidine triphosphate (^3H-TTP) was suspended in distilled H2O at 5 Ci/mL. Poly rA and oligo dT were prepared as a stock solution which was kept at -20°C. RT reaction buffer was prepared fresh on a daily basis and contained 125 µL 1M EGTA, 125 µL dH2O, 110 µL 10% SDS, 50 µL 1M Tris (pH 7.4), 50 µL 1M DTT, and 40 µL 1M MgCl2. These three solutions were mixed together in a ratio of 2 parts ^3H-TTP, 1 part poly rA:oligo dT, and 1 part reaction buffer. Ten microliters of this reaction mixture were placed in a round bottom microtiter plate and 15 µL of virus containing supernatant were added and mixed. The plate was incubated at 37°C in a water bath with a solid support to prevent submersion of the plate and incubated for 60 minutes.

[1] = 0.0001 mM, simultaneously exposed to drug and HIV
[2] = 0.00032 mM, 2-hour pretreatment
[3] = 0.00032 mM, simultaneously exposed to drug and HIV
[4] = 0.001 mM, simultaneously exposed to drug and HIV
[5] = 0.0032 mM, simultaneously exposed to drug and HIV
[6] = 0.01 mM, simultaneously exposed to drug and HIV
[7] = 0.032 mM, simultaneously exposed to drug and HIV
[8] = 0.1 mM, simultaneously exposed to drug and HIV
[9] = 0.32 mM, simultaneously exposed to drug and HIV
[10] = 1 mM, simultaneously exposed to drug and HIV

Structure (SMILES): O=C(CO)N[C@H]1[C@H]([C@H](O)[C@H](O)CO)OC(O)(C(=O)O)C[C@@H]1O (stereo partly drawn) [N-glycolylneuraminic acid]
- CPE (HIV-1 MN; Neu5Gc dilution 1:2): negative
- O.D. (HIV-1 MN; Neu5Gc dilution 1:2): 0.017
- P-24 (HIV-1 MN; Neu5Gc dilution 1:2): 320 picograms HIV-1 p24 per mL
- Syncytia (HIV-1 MN; Neu5Gc dilution 1:2): negative
- CPE (HIV-1 MN; Neu5Gc dilution 1:4): negative
- O.D. (HIV-1 MN; Neu5Gc dilution 1:4): 0.043
- P-24 (HIV-1 MN; Neu5Gc dilution 1:4): 922 picograms HIV-1 p24 per mL
- Syncytia (HIV-1 MN; Neu5Gc dilution 1:4): negative
- CPE (HIV-1 MN; Neu5Gc dilution 1:8): negative
- O.D. (HIV-1 MN; Neu5Gc dilution 1:8): 0.057
- P-24 (HIV-1 MN; Neu5Gc dilution 1:8): 871 picograms HIV-1 p24 per mL
- Syncytia (HIV-1 MN; Neu5Gc dilution 1:8): negative
- CPE (HIV-1 MN; Neu5Gc dilution 1:16): negative
- O.D. (HIV-1 MN; Neu5Gc dilution 1:16): 0.061
- P-24 (HIV-1 MN; Neu5Gc dilution 1:16): 824 picograms HIV-1 p24 per mL
- Syncytia (HIV-1 MN; Neu5Gc dilution 1:16): negative
- CPE (HIV-1 MN; Neu5Gc dilution 1:32): negative
- O.D. (HIV-1 MN; Neu5Gc dilution 1:32): 0.012
- P-24 (HIV-1 MN; Neu5Gc dilution 1:32): 265 picograms HIV-1 p24 per mL
- Syncytia (HIV-1 MN; Neu5Gc dilution 1:32): negative
- CPE (HIV-1 MN; Neu5Gc dilution 1:64): negative
- O.D. (HIV-1 MN; Neu5Gc dilution 1:64): 0.041
- P-24 (HIV-1 MN; Neu5Gc dilution 1:64): 865 picograms HIV-1 p24 per mL
- Syncytia (HIV-1 MN; Neu5Gc dilution 1:64): negative
- cell viability (HIV-1 MN; human, pbmcs): 25%
- Mean p24 output (HIV-1 MN; samples treated with N-glycolylneuraminic acid (corrected for dilution factor)): 624± 326 pg HIV-1P24/ml
- Reverse Transcriptase (RT) Activity (cpm), Mean (HIV-1ROJO; 0.0001 mM, 2-hour pretreatment): 2763.7 cpm
- RT activity % VC (HIV-1ROJO; 0.0001 mM, 2-hour pretreatment): 134.2%
- RT Activity (cpm), Mean (HIV-1ROJO; [1]): 2348.3 cpm
- RT activity % VC (HIV-1ROJO; [1]): 78.5%
- RT Activity (cpm) (HIV-1ROJO; [1]): 2423.0 cpm and 2253.0 cpm and 2369.0 cpm
- Reverse Transcriptase (RT) Activity (cpm), Mean (HIV-1ROJO; [2]): 2015.3 cpm
- RT activity % VC (HIV-1ROJO; [2]): 97.8%
- RT Activity (cpm), Mean (HIV-1ROJO; [3]): 2795.0 cpm
- RT activity % VC (HIV-1ROJO; [3]): 93.4%
- Reverse Transcriptase (RT) Activity (cpm), Mean (HIV-1ROJO; 0.001 mM, 2-hour pretreatment): 1867.0 cpm
- RT activity % VC (HIV-1ROJO; 0.001 mM, 2-hour pretreatment): 90.6%
- RT Activity (cpm), Mean (HIV-1ROJO; [4]): 3108.7 cpm
- RT activity % VC (HIV-1ROJO; [4]): 103.9%
- Reverse Transcriptase (RT) Activity (cpm), Mean (HIV-1ROJO; 0.0032 mM, 2-hour pretreatment): 2529.0 cpm
- RT activity % VC (HIV-1ROJO; 0.0032 mM, 2-hour pretreatment): 122.8%
- Reverse Transcriptase (RT) Activity (cpm) (HIV-1ROJO; 0.0032 mM, 2-hour pretreatment): 2381.0 cpm and 3368.0 cpm and 1838.0 cpm
- RT Activity (cpm), Mean (HIV-1ROJO; [5]): 2892.7 cpm
- RT activity % VC (HIV-1ROJO; [5]): 96.7%
- Reverse Transcriptase (RT) Activity (cpm), Mean (HIV-1ROJO; 0.01 mM, 2-hour pretreatment): 951.3 cpm
- RT activity % VC (HIV-1ROJO; 0.01 mM, 2-hour pretreatment): 46.2%
- RT Activity (cpm), Mean (HIV-1ROJO; [6]): 2163.3 cpm
- RT activity % VC (HIV-1ROJO; [6]): 72.3%
- RT Activity (cpm) (HIV-1ROJO; [6]): 2284.0 cpm and 2280.0 cpm and 1926.0 cpm
- Reverse Transcriptase (RT) Activity (cpm), Mean (HIV-1ROJO; 0.032 mM, 2-hour pretreatment): 561.7 cpm
- RT activity % VC (HIV-1ROJO; 0.032 mM, 2-hour pretreatment): 27.3%
- RT Activity (cpm), Mean (HIV-1ROJO; [7]): 1867.3 cpm
- RT activity % VC (HIV-1ROJO; [7]): 62.4%
- RT Activity (cpm) (HIV-1ROJO; [7]): 1814.0 cpm and 2094.0 cpm and 1694.0 cpm
- Reverse Transcriptase (RT) Activity (cpm), Mean (HIV-1ROJO; 0.1 mM, 2-hour pretreatment): 459.0 cpm
- RT activity % VC (HIV-1ROJO; 0.1 mM, 2-hour pretreatment): 22.3%
- RT Activity (cpm), Mean (HIV-1ROJO; [8]): 906.3 cpm
- RT activity % VC (HIV-1ROJO; [8]): 30.3%
- Reverse Transcriptase (RT) Activity (cpm), Mean (HIV-1ROJO; 0.32 mM, 2-hour pretreatment): 146.7 cpm
- RT activity % VC (HIV-1ROJO; 0.32 mM, 2-hour pretreatment): 7.1%
- Reverse Transcriptase (RT) Activity (cpm) (HIV-1ROJO; 0.32 mM, 2-hour pretreatment): 196.0 cpm and 140.0 cpm and 104.0 cpm
- RT Activity (cpm), Mean (HIV-1ROJO; [9]): 102.7 cpm
- RT Activity (cpm) (HIV-1ROJO; [9]): 132.0 cpm and 108.0 cpm and 68.0 cpm
- Reverse Transcriptase (RT) Activity (cpm), Mean (HIV-1ROJO; 1 mM, 2-hour pretreatment): 76.0 cpm
- RT activity % VC (HIV-1ROJO; 1 mM, 2-hour pretreatment): 3.7%
- Reverse Transcriptase (RT) Activity (cpm) (HIV-1ROJO; 1 mM, 2-hour pretreatment): 72.0 cpm and 68.0 cpm and 88.0 cpm
- RT Activity (cpm), Mean (HIV-1ROJO; [10]): 204 cpm
- RT activity % VC (HIV-1ROJO; [10]): 6.8%
- IC50 (HIV-1ROJO; PBMCs, 2hr pretreatment): ~10 µM
- IC50 (HIV-1ROJO; PBMCs, simultaneously exposed to drug and HIV, without a pretreatment): ~58 µM
- TI (HIV-1ROJO; PBMCs, simultaneously exposed to drug and HIV): > 17.25
- anti-HIV activity (HIV-1ROJO; PBMCs, with and without a 2hr pretreatment of the cells): active
